The record followed here is patent US8536332B2, “Modulating signal transduction pathways with substituted pyridol [2,3-b] pyrazines” (Aeterna Zentaris GmbH, priority 2007, dated 2013).

For the molecule `COc1cc(Nc2cnc3ccc(NC(=S)NCc4ccc(F)cc4)nc3n2)cc(OC)c1OC` [Compound 701, 1-(4-Fluoro-benzyl)-3-[3-(3,4,5-trimethoxy-phenylamino)-pyrido[2,3-b]pyrazin-6-yl]-thiourea], the melting point (usually the temperature, or range, at which the solid turns liquid) worked out at 255 °C.
As for `CCNC(=O)Nc1ccc2ncc(-c3ccc(N(c4ccccc4)c4ccccc4)cc3)nc2n1` [Compound 128, 1-[3-(4-Diphenylamino-phenyl)-pyrido[2,3-b]pyrazin-6-yl]-3-ethyl-urea], the figure is 269 to 273 °C.
As for `CCCOc1ccc(-c2cnc3ccc(NC(=O)NCC)nc3n2)cc1` [Compound 133, 1-Ethyl-3-[3-(4-propoxy-phenyl)-pyrido[2,3-b]pyrazin-6-yl]-urea], the figure is 258.7 °C; as for `CCNC(=O)Nc1ccc2ncc(Nc3cc(C)c(O)cc3C)nc2n1` [Compound 446, 1-Ethyl-3-[3-(4-hydroxy-2,5-dimethyl-phenylamino)-pyrido[2,3-b]pyrazin-6-yl]-urea], 222 °C.
To `CNC(=O)Nc1cnc2ccc(-c3cc(Cl)c(O)c(Cl)c3)nc2n1` [Compound 557, 1-[6-(3,5-Dichloro-4-hydroxy-phenyl)-pyrido[2,3-b]pyrazin-3-yl]-3-methyl-urea] belongs 247 to 249 °C; to `Cc1cc(-c2ccc3ncc(NC(=O)Nc4c(C)noc4C)nc3n2)cc(C)c1O` [Compound 590, 1-(3,5-Dimethyl-isoxazol-4-yl)-3-[6-(4-hydroxy-3,5-dimethyl-phenyl)-pyrido[2,3-b]pyrazin-3-yl]-urea], 242 to 244 °C; to `CCNC(=O)Nc1ccc2ncc(Nc3ccccc3OC)nc2n1` [Compound 153, 1-Ethyl-3-[3-(2-methoxy-phenylamino)-pyrido[2,3-b]pyrazin-6-yl]-urea], 225 °C.
`CCOc1ccc(NC(=O)Nc2cnc3ccc(-c4ccc(O)c(OC)c4)nc3n2)cc1` [Compound 624, 1-(4-Ethoxy-phenyl)-3-[6-(4-hydroxy-3-methoxy-phenyl)-pyrido[2,3-b]pyrazin-3-yl]-urea]: the melting point was in the range of 242 to 245 °C.
For `CCNC(=O)Nc1cnc2ccc(-c3cc(C)c(O)c(Cl)c3)nc2n1` [Compound 642, 1-[6-(3-Chloro-4-hydroxy-5-methyl-phenyl)-pyrido[2,3-b]pyrazin-3-yl]-3-ethyl-urea], the melting point is 266 °C.
As for `CCNC(=O)Nc1ccc2ncc(-c3cc(Cl)cc(C)c3F)nc2n1` [Compound 96, 1-[3-(5-Chloro-2-fluoro-3-methyl-phenyl)-pyrido[2,3-b]pyrazin-6-yl]-3-ethyl-urea], the figure is 258 to 259 °C; as for `COc1cc(-c2ccc3ncc(NC(=O)Nc4cccnc4)nc3n2)ccc1O` [Compound 611, 1-[6-(4-Hydroxy-3-methoxy-phenyl)-pyrido[2,3-b]pyrazin-3-yl]-3-pyridin-3-yl-urea], 245 to 248 °C.
In turn, `CCNC(=O)Nc1cnc2ccc(N3CCOCC3)nc2n1` [Compound 225, 1-Ethyl-3-(6-morpholin-4-yl-pyrido[2,3-b]pyrazin-3-yl)-urea] came in with a melting point of 243 to 245 °C.
To `CCCCOc1c(C)cc(-c2ccc3ncc(NC(=O)NCC)nc3n2)cc1C` [Compound 599, 1-[6-(4-Butoxy-3,5-dimethyl-phenyl)-pyrido[2,3-b]pyrazin-3-yl]-3-ethyl-urea] belongs 233 °C; to `CN(C)c1ccc(NC(=O)Nc2cnc3ccc(-c4cc(Cl)c(O)c(Cl)c4)nc3n2)cc1` [Compound 555, 1-[6-(3,5-Dichloro-4-hydroxy-phenyl)-pyrido[2,3-b]pyrazin-3-yl]-3-(4-dimethylamino-phenyl)-urea], 259 to 262 °C.
To `COc1cc(Nc2cnc3ccc(NC(=S)NCCN4CCOCC4)nc3n2)cc(OC)c1OC` [Compound 703, 1-(2-Morpholin-4-yl-ethyl)-3-[3-(3,4,5-trimethoxy-phenylamino)-pyrido[2,3-b]pyrazin-6-yl]-thiourea] belongs 196 °C; to `CCNC(=O)Nc1cnc2ccc(-c3cc(C)c(OC(C)C)c(C)c3)nc2n1` [Compound 597, 1-Ethyl-3-[6-(4-isopropoxy-3,5-dimethyl-phenyl)-pyrido[2,3-b]pyrazin-3-yl]-urea], 221 °C.
To `CCNC(=O)Nc1ccc2ncc(-c3ccc(O)c(Br)c3)nc2n1` [Compound 47, 1-[3-(3-Bromo-4-hydroxy-phenyl)-pyrido[2,3-b]pyrazin-6-yl]-3-ethyl-urea] belongs 337 to 339 °C; to `CCNC(=O)Nc1cnc2ccc(-c3ccc(OC(F)(F)F)c(F)c3)nc2n1` [Compound 640, 1-Ethyl-3-[6-(3-fluoro-4-trifluoromethoxy-phenyl)-pyrido[2,3-b]pyrazin-3-yl]-urea], 262 °C.
Molecule `CCNC(=O)Nc1ccc2ncc(-c3ccc(NC(=O)OCCOC)c(OC)c3)nc2n1` [Compound 40, {4-[6-(3-Ethyl-ureido)-pyrido[2,3-b]pyrazin-3-yl]-2-methoxy-phenyl}-carbamic acid 2-methoxy-ethyl ester] gave a melting point greater than 240 °C.
As for `COc1cc(-c2ccc3ncc(NC(=O)N(C)c4ccc(C(C)C)cc4)nc3n2)ccc1O` [Compound 635, 3-[6-(4-Hydroxy-3-methoxy-phenyl)-pyrido[2,3-b]pyrazin-3-yl]-1-(4-isopropyl-phenyl)-1-methyl-urea], the figure is 226 to 228 °C.
As for `CCNC(=S)Nc1cnc2ccc(Nc3ccc(Cl)cc3)nc2n1` [Compound 217, 1-[6-(4-Chloro-phenylamino)-pyrido[2,3-b]pyrazin-3-yl]-3-ethyl-thiourea], the figure is 185 °C.
To `COc1ccc(-c2ccc3ncc(NC(=O)c4ccccc4)nc3n2)cc1OC` [Compound 660, N-[6-(3,4-Dimethoxy-phenyl)-pyrido[2,3-b]pyrazin-3-yl]-benzamide] belongs 168 to 170 °C; to `CCNC(=O)Nc1cnc2ccc(-c3ccc(C)c(N)c3)nc2n1` [Compound 180, 1-[6-(3-Amino-4-methyl-phenyl)-pyrido[2,3-b]pyrazin-3-yl]-3-ethyl-urea], greater than 320 °C.
The molecule `CCNC(=O)Nc1cnc2ccc(-c3ccc(O)cc3)nc2n1` [Compound 182, 1-Ethyl-3-[6-(4-hydroxy-phenyl)-pyrido[2,3-b]pyrazin-3-yl]-urea] yielded a melting point of 277 to 279 °C.
In turn, `CCNC(=S)Nc1cnc2ccc(Nc3ccc(O)c(OC)c3)nc2n1` [Compound 203, 1-Ethyl-3-[6-(4-hydroxy-3-methoxy-phenylamino)-pyrido[2,3-b]pyrazin-3-yl]-thiourea] gave a melting point of 166 °C.
For the molecule `CCNC(=O)Nc1ccc2ncc(-c3cccnc3OC(C)C)nc2n1` [Compound 51, 1-Ethyl-3-[3-(2-isopropoxy-pyridin-3-yl)-pyrido[2,3-b]pyrazin-6-yl]-urea], the melting point lay in the range of 231 to 232 °C.
As for `CCNC(=O)Nc1cnc2ccc(-c3cc(C)cc(Br)c3OC)nc2n1` [Compound 639, 1-[6-(3-Bromo-2-methoxy-5-methyl-phenyl)-pyrido[2,3-b]pyrazin-3-yl]-3-ethyl-urea], the figure is 250 to 252 °C; as for `Cc1cc(-c2ccc3ncc(NC(=O)NC4CCN(C(=O)C(F)(F)F)CC4)nc3n2)cc(C)c1O` [Compound 589], 251 to 253 °C.
